Data as given in paper PMC10928712, “High Target Homology Does Not Guarantee Inhibition: Aminothiazoles Emerge as Inhibitors of Plasmodium falciparum” (ACS Infectious Diseases, 2024).

How the values were obtained:
P. falciparum Dd2 = assay: Method III growth inhibition assay (HRP2-ELISA, 3 days), Dd2; type: cell-based, Plasmodium falciparum; settings: Plasmodium falciparum, DD2, chloroquine-resistant Dd2, method III
P. falciparum 3D7-DXPS+ = assay: Growth inhibition of PfDXPS overexpressing parasites (3D7-DXPS+); type: cell-based; settings: Plasmodium falciparum, 3D7, read-out: PfDXPS IC50
Text: The open reading frame (ORF) encoding 1-deoxy-D-xylulose-5-phosphate synthase (PfDXPS; PF3D7_1337200) was amplified from genomic DNA isolated from unsynchronized P. falciparum 3D7 cultures using the Platinum PCR SuperMix High Fidelity (Invitrogen). Forward and reverse primers contained restriction sites for KpnI and AvrII in sense and antisense orientation, respectively (oligonucleotides pfDXPS-Kpn1-S: […]; pfDXPSmyc-Avr2-AS: […] ). PCR products and the transfection vector pARL1a-hDHFR PfARG-GFP were digested with KpnI and AvrII, purified (Gel extraction Kit and PCR purification kit; Qiagen), and cloned into the transfection vector yielding the construct for overexpression pARL-DXS-strep. XL 10-Gold E. coli ultracompetent cells (Agilent Technologies) were transformed with the generated construct to amplify the plasmid and colonies checked using restriction analysis and sequencing of the plasmid. Bacterial clones carrying the overexpression construct and the empty pARL1a vector (MOCK plasmid) were amplified in overnight cultures, isolated (Plasmid Maxi Kit; QIAGEN), and subsequently used to transfect P. falciparum 3D7 ring-stage parasites, as already described.[59] Briefly, 120 μg of plasmid DNA was centrifuged and air-dried, and the pellet was resuspended in TE buffer and cytomix reagent and mixed with the P. falciparum culture. Parasites were transfected using electroporation and selected with WR 99210. The generation and characterization of the PfTPK overexpression cell line has been reported before.[60]
(§1) P. falciparum cultures were treated as described in method I. For target specification toward PfTPK and PfDXPS, compounds were tested in comparison against overexpressing cell lines and the respective MOCK line containing only the transfected vector backbone. Parasite viability/proliferation was determined.

P. falciparum 3D7-TPK+ = assay: Growth inhibition of PfTPK overexpressing parasites (3D7-TPK+); type: cell-based; settings: Plasmodium falciparum, 3D7, read-out: PfTPK IC50
Experimental: as §1, with “determined. Analysis of the IC50 values and interpretation of the curves was performed, as described in Section 4.1.2.44.” for “determined.”
eq 1: Fluorescence data normalization [drawing 2] where y is the fluorescence signal in each well, yminimum is the background fluorescence, and ymaximum is the highest measured fluorescence signal in the untreated wells. Drug concentrations (in μM) were transformed to the log(10)of the values. Means of each independent experiment were plotted as individual values, and the SD of the mean from the means shown as error bars. […] In case of transgenic cell lines, the built-in comparison Akaike’s information criteria (AICc) method was applied to the Log IC50s of the different cell lines. The test calculates a percentage probability of the simpler model “Log IC50 is the same for datasets” being correct. The test for homoscedasticity was performed to confirm if no weighting of values was appropriate.

[1] = tested on: blood-stage P. falciparum 3D7; settings: Plasmodium falciparum

Cc1nc(N)sc1-c1csc(Nc2ccc(C(F)(F)F)cc2)n1 [compound 1]
IC50 (P. falciparum Dd2): 0.8 ± 0.4 µM
IC50 (P. falciparum 3D7-DXPS+): 2.08 µM
IC50 (P. falciparum 3D7-TPK+): 1.76 µM
IC50 [1]: 0.6 to 1.7 µM
